Data: the supplement of paper PMC9663587

Assays:
Test in all cases: area over the GR curve, 72 h; higher = more effect;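 note: Dye Drop or Deep Dye Drop imaging of viable cells in 384-well plates (Hoechst nuclei, LIVE/DEAD dye), nine half-log doses, GR normalized to DMSO controls and time-zero plates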
MDAMB361 = system: MDAMB361
EVSAT = system: EVSAT
PDX1328 = system: PDX1328
SUM185PE = system: SUM185PE
UACC812 = system: UACC812
HCC1937 = system: HCC1937
BT549 = system: BT549
HCC1395 = system: HCC1395
MDAMB330 = system: MDAMB330
MDAMB453 = system: MDAMB453
ZR751 = system: ZR751
HCC1806 = system: HCC1806

Row | Structure (SMILES) | area over the GR curve (MDAMB361) [GR] | area over the GR curve (EVSAT) [GR] | area over the GR curve (PDX1328) [GR] | area over the GR curve (SUM185PE) [GR] | area over the GR curve (UACC812) [GR] | area over the GR curve (HCC1937) [GR] | area over the GR curve (BT549) [GR] | area over the GR curve (HCC1395) [GR] | area over the GR curve (MDAMB330) [GR] | area over the GR curve (MDAMB453) [GR] | area over the GR curve (ZR751) [GR] | area over the GR curve (HCC1806) [GR] | area over the GR curve (MDAMB361; main component drawn) [GR] | area over the GR curve (PDX1328; main component drawn) [GR] | area over the GR curve (HCC1937; main component drawn) [GR] | area over the GR curve (BT549; main component drawn) [GR] | area over the GR curve (HCC1395; main component drawn) [GR] | area over the GR curve (MDAMB453; main component drawn) [GR] | area over the GR curve (HCC1806; main component drawn) [GR]
1 | COc1cccc(OCCCN)c1-c1cc(Nc2cnc(C#N)cn2)n[nH]1 | 0.828 | 0.0022 | 0.442 | 0.167 | 0.0047 | 0.55 | 1.4 | 0.832 | 0.718 | 0.843 | 0.3 | 1.39 | – | – | – | – | – | – | –
2 | Cc1nc(NC(=O)N2CCC[C@H]2C(N)=O)sc1-c1ccnc(C(C)(C)C(F)(F)F)c1 [Alpelisib/BYL719] (max 10 µM) | 0.531 | 0.0161 | 0.241 | 0.36 | 0.381 | 0.0501 | 0.0322 | 0.023 | 0.279 | 0.335 | 0.0495 | 0.0386 | – | – | – | – | – | – | –
3 | CC(=O)c1c(C)c2cnc(Nc3ccc(N4CCN(CCOCCOCCOCCNC(=O)COc5cccc6c5C(=O)N(C5CCC(=O)NC5=O)C6=O)CC4)cn3)nc2n(C2CCCC2)c1=O (stereo not given) [BSJ-03-123] (max 10 µM) | 0.439 | 0.194 | 0.31 | 0.156 | 0.367 | 0.0357 | 0.116 | 0.323 | 0.443 | 0.267 | 0.267 | 0.21 | – | – | – | – | – | – | –
4 | CC(=O)c1c(C)c2cnc(Nc3ccc(N4CCNCC4)cn3)nc2n(C2CCCC2)c1=O (max 3.162 µM) | 0.473 | 0.141 | 0.252 | 0.0458 | 0.609 | -0.0629 | -0.0495 | 0.274 | 0.47 | 0.437 | 0.12 | 0.146 | – | – | – | – | – | – | –
5 | CS(=O)(=O)N1CCN(Cc2cc3nc(-c4cccc5[nH]ncc45)nc(N4CCOCC4)c3s2)CC1 [Pictilisib/GDC0941] (max 10 µM) | 0.716 | 0.387 | 0.296 | 0.458 | 0.6 | 0.211 | 0.208 | 0.226 | 0.53 | 0.391 | 0.324 | 0.118 | – | – | – | – | – | – | –
6 | Cc1cc(Nc2ncc(Cl)c(Nc3ccccc3S(=O)(=O)C(C)C)n2)c(OC(C)C)cc1C1CCNCC1 [Ceritinib/LDK378] (max 10 µM) | 0.546 | 0.0642 | 0.416 | 0.261 | 0.085 | 0.133 | 0.141 | 0.215 | 0.187 | 0.461 | 0.16 | 0.156 | – | – | – | – | – | – | –
7 | CC(=O)Nc1cccc(-n2c(=O)n(C3CC3)c(=O)c3c(Nc4ccc(I)cc4F)n(C)c(=O)c(C)c32)c1 (max 1 µM) | 0.219 | 0.0263 | 0.166 | -0.0188 | 0.686 | 0.138 | 0.129 | 0.185 | 0.218 | 0.279 | 0.328 | 0.104 | – | – | – | – | – | – | –
8 | CC[C@@]1(O)C(=O)OCc2c1cc1n(c2=O)Cc2cc3c(CN(C)C)c(O)ccc3nc2-1 [Topotecan] (max 10 µM) | 1.13 | – | 1.07 | – | – | 0.837 | 0.851 | 1.08 | – | 0.926 | – | 1.07 | – | – | – | – | – | – | –
9 | CCNC(=O)c1noc(-c2cc(C(C)C)c(O)cc2O)c1-c1ccc(CN2CCOCC2)cc1 [Luminespib/NVP-AUY922] (max 1 µM) | 0.978 | 0.68 | 0.751 | 0.673 | 0.881 | 0.548 | 0.612 | 0.617 | 0.887 | 0.848 | 0.362 | 0.539 | – | – | – | – | – | – | –
10 | COc1cc2nccc(Oc3ccc(NC(=O)C4(C(=O)Nc5ccc(F)cc5)CC4)cc3)c2cc1OC [Cabozantinib] (max 10 µM) | 0.0628 | 0.0366 | 0.0918 | -0.023 | -0.092 | 0.0053 | 0.0035 | 0.0651 | 0 | -0.0455 | -0.0852 | -0.021 | – | – | – | – | – | – | –
11 | NC(=O)Nc1cc(-c2cccc(F)c2)sc1C(=O)N[C@H]1CCCNC1 [AZD7762] (max 10 µM) | 1.05 | 0.253 | 0.828 | 0.447 | 1.02 | 0.447 | 0.601 | 0.857 | 0.704 | 0.853 | 0.201 | 0.89 | – | – | – | – | – | – | –
12 | CN(C)C(=O)c1cc2cnc(Nc3ccc(N4CCNCC4)cn3)nc2n1C1CCCC1 [LEE011/Ribociclib] (max 10 µM) | 0.784 | 0.12 | 0.406 | 0.101 | 0.642 | 0.0156 | 0.0102 | 0.323 | 0.824 | 0.555 | 0.258 | 0.141 | – | – | – | – | – | – | –
13 | COc1cccc2c1C(=O)c1c(O)c3c(c(O)c1C2=O)C[C@@](O)(C(=O)CO)C[C@@H]3O[C@H]1C[C@H](N)[C@H](O)[C@H](C)O1 [Doxorubicin] (max 3.162 µM) | 0.912 | 0.642 | 0.637 | 0.0881 | 1.18 | 0.579 | 0.76 | 0.637 | 0.716 | 0.786 | 0.497 | 0.628 | – | – | – | – | – | – | –
14 | CCc1cnn2c(NCc3ccc[n+]([O-])c3)cc(N3CCCC[C@H]3CCO)nc12 (max 1 µM) | 0.593 | 0.0948 | 0.656 | 0.261 | 0.151 | 0.475 | 0.591 | 0.644 | 0.101 | 0.578 | 0.468 | 0.643 | – | – | – | – | – | – | –
15 | CN(C)C/C=C/C(=O)Nc1ccc(C(=O)N2CCC[C@@H](Nc3ncc(Cl)c(-c4c[nH]c5ccccc45)n3)C2)cc1 [THZ531] (max 1 µM) | 0.682 | 0.0912 | 0.418 | 0.231 | 0.0619 | 0.176 | 0.174 | 0.37 | 0.747 | 0.537 | 0.124 | 0.134 | – | – | – | – | – | – | –
16 | CN(C)C/C=C/C(=O)Nc1ccc(O[C@@H]2CCC[C@@H](Nc3ncc(Cl)c(-c4c[nH]c5ccccc45)n3)C2)cc1 [BSJ-01-175] (max 10 µM) | 1.32 | 0.637 | 0.898 | 0.597 | 0.571 | 0.462 | 0.433 | 1.01 | 1.22 | 1.08 | 0.189 | 0.581 | – | – | – | – | – | – | –
17 | C=CCn1c(=O)c2cnc(Nc3ccc(N4CCN(C)CC4)cc3)nc2n1-c1cccc(C(C)(C)O)n1 [AZD1775] (max 10 µM) | 0.897 | 0.228 | 0.806 | 0.212 | 0.34 | 0.707 | 0.446 | 0.886 | 0.655 | 0.563 | 0.143 | 0.847 | – | – | – | – | – | – | –
18 | CN1CCN(CCOc2cc(OC3CCOCC3)c3c(Nc4c(Cl)ccc5c4OCO5)ncnc3c2)CC1 [Saracatinib/AZD0530] (max 10 µM) | 0.406 | 0.203 | 0.31 | 0.279 | 0.875 | 0.039 | 0.0348 | 0.111 | 0.303 | 0.0491 | 0.163 | 0.233 | – | – | – | – | – | – | –
19 | N.N.[Cl][Pt][Cl] [Cisplatin] (max 10 µM) | 0.177 | – | 0.287 | – | – | 0.327 | 0.283 | 0.386 | – | 0.0713 | – | 0.317 | – | – | – | – | – | – | –
20 | CCOc1cc2ncc(C#N)c(Nc3ccc(OCc4ccccn4)c(Cl)c3)c2cc1NC(=O)/C=C/CN(C)C [Neratinib/HKI272] (max 3.162 µM) | 0.425 | 0.0683 | 0.314 | 0.255 | 1.03 | 0.171 | 0.0779 | 0.142 | 1.18 | 0.553 | 0.0964 | 0.191 | – | – | – | – | – | – | –
21 | CNC(=O)c1cccc(-c2ccc3c(N4CCOC[C@@H]4C)nc(N4CCOC[C@@H]4C)nc3n2)c1 [AZD2014] (max 10 µM) | 1.2 | 0.75 | 0.706 | 0.606 | 1.13 | 0.52 | 0.491 | 0.582 | 1.38 | 0.692 | 0.8 | 0.349 | – | – | – | – | – | – | –
22 | CO[C@@H](C)Cn1c(=O)n(C)c2cnc3ccc(-c4cncc(C(C)(C)O)c4)cc3c21 (max 10 µM) | 1.47 | 0.795 | 0.72 | 0.679 | 1.03 | 0.485 | 0.765 | 0.618 | 1.31 | 0.851 | 0.691 | 0.43 | – | – | – | – | – | – | –
23 | CCN1CCN(Cc2ccc(Nc3ncc(F)c(-c4cc(F)c5nc(C)n(C(C)C)c5c4)n3)nc2)CC1 (max 10 µM) | 0.828 | 0.324 | 0.676 | 0.254 | 1.04 | 0.102 | 0.127 | 0.562 | 0.722 | 0.85 | 0.429 | 0.392 | – | – | – | – | – | – | –
24 | COc1cc([C@@H]2c3cc4c(cc3[C@@H](O[C@@H]3O[C@@H]5CO[C@@H](C)O[C@H]5[C@H](O)[C@H]3O)[C@H]3COC(=O)[C@H]23)OCO4)cc(OC)c1O [Etoposide] (max 10 µM) | 0.343 | – | 0.35 | – | – | 0.393 | 0.473 | 0.389 | – | 0.362 | – | 0.648 | – | – | – | – | – | – | –
25 | Cc1c(N)nc([C@H](CC(N)=O)NC[C@H](N)C(N)=O)nc1C(=O)N[C@H](C(=O)N[C@H](C)[C@@H](O)[C@H](C)C(=O)N[C@H](C(=O)NCCc1nc(-c2nc(C(=O)NCCC[S+](C)C)cs2)cs1)[C@@H](C)O)[C@@H](OC1OC(CO)C(O)C(O)C1OC1OC(CO)C(O)C(OC(N)=O)C1O)c1cnc[nH]1 (stereo not given in full) [Bleomycin] (max 10 µM) | – | – | – | – | – | – | – | – | – | – | – | – | 0.361 | 0.199 | 0.416 | 0.467 | 0.607 | 0.198 | 0.117
